Test results from PubChem BioAssay (NCI).
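A five-concentration, 48-hour dose response in 96-well plates underlies each endpoint, interpolated linearly between surrounding concentrations. TGI: total growth inhibition.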

Columns and labels:
Assay in all cases: growth of human tumour cells (NCI), 48 h
786-0 renal = test system: 786-0 renal
A498 renal = test system: A498 renal
A549 NSCLC = test system: A549 NSCLC
ACHN renal = test system: ACHN renal
CAKI-1 renal = test system: CAKI-1 renal
CCRF-CEM leukemia = test system: CCRF-CEM leukemia
DU-145 prostate = test system: DU-145 prostate
EKVX NSCLC = test system: EKVX NSCLC
HCC-2998 colon = test system: HCC-2998 colon
HCT-116 colon = test system: HCT-116 colon
HCT-15 colon = test system: HCT-15 colon
HL-60(TB) leukemia = test system: HL-60(TB) leukemia
HOP-62 NSCLC = test system: HOP-62 NSCLC
HOP-92 NSCLC = test system: HOP-92 NSCLC
HS 578T breast = test system: HS 578T breast
HT29 colon = test system: HT29 colon
IGROV1 ovarian = test system: IGROV1 ovarian
K-562 leukemia = test system: K-562 leukemia
LOX IMVI melanoma = test system: LOX IMVI melanoma
M14 melanoma = test system: M14 melanoma
MALME-3M melanoma = test system: MALME-3M melanoma
MDA-MB-231 breast = test system: MDA-MB-231 breast
MDA-MB-435 = test system: MDA-MB-435
MDA-N = test system: MDA-N
MOLT-4 leukemia = test system: MOLT-4 leukemia
NCI-H23 lung = test system: NCI-H23 lung
NCI-H460 lung = test system: NCI-H460 lung
NCI-H522 lung = test system: NCI-H522 lung
NCI/ADR-RES ovarian = test system: NCI/ADR-RES ovarian
OVCAR-3 ovarian = test system: OVCAR-3 ovarian
OVCAR-4 ovarian = test system: OVCAR-4 ovarian
OVCAR-5 ovarian = test system: OVCAR-5 ovarian
OVCAR-8 ovarian = test system: OVCAR-8 ovarian
PC-3 prostate = test system: PC-3 prostate
RPMI-8226 leukemia = test system: RPMI-8226 leukemia
RXF 393 renal = test system: RXF 393 renal
SF-268 CNS = test system: SF-268 CNS
SF-295 CNS = test system: SF-295 CNS
SF-539 CNS = test system: SF-539 CNS
SK-MEL-2 melanoma = test system: SK-MEL-2 melanoma
SK-MEL-28 melanoma = test system: SK-MEL-28 melanoma
SK-MEL-5 melanoma = test system: SK-MEL-5 melanoma
SK-OV-3 ovarian = test system: SK-OV-3 ovarian
SNB-19 CNS = test system: SNB-19 CNS
SNB-75 CNS = test system: SNB-75 CNS
SR leukemia = test system: SR leukemia
SW-620 colon = test system: SW-620 colon
T-47D breast = test system: T-47D breast
U251 CNS = test system: U251 CNS
UACC-257 melanoma = test system: UACC-257 melanoma
UACC-62 melanoma = test system: UACC-62 melanoma
UO-31 renal = test system: UO-31 renal
BT-549 breast = test system: BT-549 breast
COLO 205 colon = test system: COLO 205 colon
KM12 colon = test system: KM12 colon
MCF7 breast = test system: MCF7 breast
NCI-H226 lung = test system: NCI-H226 lung
SN12C renal = test system: SN12C renal
TK-10 renal = test system: TK-10 renal

## OC(CC(O)(C(F)(F)F)C(F)(F)F)c1ccc(C(O)CC(O)(C(F)(F)F)C(F)(F)F)cc1 (stereo not drawn)
786-0 renal
  TGI: 34.9 µM
A498 renal
  TGI: 25.1 µM
A549 NSCLC
  TGI: 28.6 µM
ACHN renal
  TGI: 27.6 µM
CAKI-1 renal
  TGI: 27.3 µM
CCRF-CEM leukemia
  TGI: 36.9 µM
DU-145 prostate
  TGI: 28.3 µM
EKVX NSCLC
  TGI: 28 µM
HCC-2998 colon
  TGI: 33.3 µM
HCT-116 colon
  TGI: 24 µM
HCT-15 colon
  TGI: 42.8 µM
HL-60(TB) leukemia
  TGI: 37.4 µM
HOP-62 NSCLC
  TGI: 35 µM
HOP-92 NSCLC
  TGI: 25.9 µM
HS 578T breast
  TGI: 47.7 µM
HT29 colon
  TGI: 25.1 µM
IGROV1 ovarian
  TGI: 23.3 µM
K-562 leukemia
  TGI: 60.7 µM
LOX IMVI melanoma
  TGI: 30.7 µM
M14 melanoma
  TGI: 29.9 µM
MALME-3M melanoma
  TGI: 27.6 µM
MDA-MB-231 breast
  TGI: 28.7 µM
MDA-MB-435
  TGI: 32.7 µM
MDA-N
  TGI: 35.4 µM
MOLT-4 leukemia
  TGI: 35.8 µM
NCI-H23 lung
  TGI: 26.7 µM
NCI-H460 lung
  TGI: 31.6 µM
NCI-H522 lung
  TGI: 40.5 µM
NCI/ADR-RES ovarian
  TGI: 29.6 µM
OVCAR-3 ovarian
  TGI: 18.2 µM
OVCAR-4 ovarian
  TGI: 29.8 µM
OVCAR-5 ovarian
  TGI: 31.1 µM
OVCAR-8 ovarian
  TGI: 29.5 µM
PC-3 prostate
  TGI: 32.5 µM
RPMI-8226 leukemia
  TGI: 48.8 µM
RXF 393 renal
  TGI: 30.7 µM
SF-268 CNS
  TGI: 28.9 µM
SF-295 CNS
  TGI: 32.5 µM
SF-539 CNS
  TGI: 29.4 µM
SK-MEL-2 melanoma
  TGI: 38.4 µM
SK-MEL-28 melanoma
  TGI: 30.6 µM
SK-MEL-5 melanoma
  TGI: 27.3 µM
SK-OV-3 ovarian
  TGI: 31.9 µM
SNB-19 CNS
  TGI: 30.9 µM
SNB-75 CNS
  TGI: 31.8 µM
SR leukemia
  TGI: 40.2 µM
SW-620 colon
  TGI: 35.8 µM
T-47D breast
  TGI: 31.3 µM
U251 CNS
  TGI: 31.1 µM
UACC-257 melanoma
  TGI: 32.2 µM
UACC-62 melanoma
  TGI: 25.2 µM
UO-31 renal
  TGI: 23 µM

## Cc1ccc([N+](=O)[O-])c2c(NCC(O)CO)ccnc12 (stereo not drawn)
786-0 renal
  TGI: > 100 µM
A549 NSCLC
  TGI: > 100 µM
ACHN renal
  TGI: > 100 µM
BT-549 breast
  TGI: > 100 µM
CAKI-1 renal
  TGI: > 100 µM
CCRF-CEM leukemia
  TGI: > 100 µM
COLO 205 colon
  TGI: 75.1 µM
DU-145 prostate
  TGI: > 100 µM
EKVX NSCLC
  TGI: > 100 µM
HCC-2998 colon
  TGI: > 100 µM
HCT-116 colon
  TGI: > 100 µM
HCT-15 colon
  TGI: > 100 µM
HL-60(TB) leukemia
  TGI: > 100 µM
HOP-62 NSCLC
  TGI: > 100 µM
HOP-92 NSCLC
  TGI: > 100 µM
HS 578T breast
  TGI: > 100 µM
HT29 colon
  TGI: > 100 µM
IGROV1 ovarian
  TGI: > 100 µM
K-562 leukemia
  TGI: > 100 µM
KM12 colon
  TGI: > 100 µM
LOX IMVI melanoma
  TGI: > 100 µM
M14 melanoma
  TGI: > 100 µM
MALME-3M melanoma
  TGI: 44.6 µM
MCF7 breast
  TGI: > 100 µM
MDA-MB-435
  TGI: > 100 µM
MDA-N
  TGI: > 100 µM
MOLT-4 leukemia
  TGI: > 100 µM
NCI-H226 lung
  TGI: > 100 µM
NCI-H23 lung
  TGI: > 100 µM
NCI-H460 lung
  TGI: 53.2 µM
NCI/ADR-RES ovarian
  TGI: > 100 µM
OVCAR-3 ovarian
  TGI: > 100 µM
OVCAR-4 ovarian
  TGI: > 100 µM
OVCAR-5 ovarian
  TGI: > 100 µM
OVCAR-8 ovarian
  TGI: > 100 µM
PC-3 prostate
  TGI: > 100 µM
RPMI-8226 leukemia
  TGI: > 100 µM
RXF 393 renal
  TGI: > 100 µM
SF-268 CNS
  TGI: > 100 µM
SF-295 CNS
  TGI: 73.9 µM
SF-539 CNS
  TGI: 48.6 µM
SK-MEL-2 melanoma
  TGI: 53.9 µM
SK-MEL-28 melanoma
  TGI: > 100 µM
SK-MEL-5 melanoma
  TGI: 42.3 µM
SK-OV-3 ovarian
  TGI: > 100 µM
SN12C renal
  TGI: > 100 µM
SNB-19 CNS
  TGI: > 100 µM
SNB-75 CNS
  TGI: > 100 µM
SR leukemia
  TGI: > 100 µM
SW-620 colon
  TGI: > 100 µM
T-47D breast
  TGI: > 100 µM
TK-10 renal
  TGI: > 100 µM
U251 CNS
  TGI: > 100 µM
UACC-257 melanoma
  TGI: > 100 µM
UACC-62 melanoma
  TGI: > 100 µM
UO-31 renal
  TGI: > 100 µM
